Assay [1] relates to hrpA promoter (T3SS). Kind of assay: hrpA promoter-probe phrpA in Erwinia amylovora 273, flow cytometry. The format is cell-based. Conditions: Ea273 (phrpA), HIM + 100 μM compound. In outline: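 Erwinia amylovora 273 carrying an hrpA promoter–GFP fusion (pPROBE-NT) was grown in hrp-inducing medium with 100 μM compound or DMSO. Promoter activity read as GFP intensity by flow cytometry at 6 h and 9 h.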
On the technique in general: In flow cytometry, cells or beads pass a laser one at a time.

Assay [2] deals with exoS promoter (T3SS). In words: exoS promoter-gfp reporter pATexoS, flow cytometry. The format is cell-based, P. aeruginosa PA01. Conditions: for Actual readings of flow cytometry (exoS expression): 6 h, LB with 200 mM NaCl, 10 mM NTA; for Fraction of untreated control (exoS expression): structure-activity table, concentration not given. On the procedure:
(§1) To identify T3SS inhibitors of PA01, a promoter-probe vector pPROBE-AT containing the promoterless green fluorescent protein (gfp) gene was used to construct an exoS promoter-gfp plasmid reporter, pATexoS. PA01 containing pATexoS was cultured in T3SS-inducing medium containing dimethyl sulfoxide (DMSO; solvent of chemical compounds), or supplemented with 250 μM of each compound, and promoter activity was assessed at 6 h by measuring GFP intensity using flow cytometry. 101 compounds (58 synthesized and 43 commercially available) were screened. Compounds 027, 032, 101, and 149 repressed exoS expression at the final concentration of 250 μM by at least one standard deviation below the sample average (Z score≦−1) (FIG. 37 A-E). Z score (or standard score) indicates how many standard deviations an observation or datum is above or below the mean [z=(x−μ)/σ, where x is a raw score to be standardized, μ is the mean of the population, and σ is the standard deviation of the population].
(§2) To determine the effective concentration of compounds, the dose-dependent effect of potential inhibitors on exoS expression and bacterial growth were tested. P. aeruginosa cells carrying pATexoS were pre-cultured in LB supplemented with 200 mM NaCl and transferred to fresh LB with 200 mM NaCl, 10 mM NTA, and various concentrations of compounds (20, 50, 100, and 250 μM) or DMSO for 6 h. […] At 50 μM dosage, both 027 and 101 inhibited exoS expression at similar levels, and this inhibitory effect increased as compound concentration increased (FIG. 38A and Table 17). […] These inhibitions/inductions of exoS expression are caused by the shifting bacterial population between low-state expression cells and high-state expression cells (FIG. 40).

The subject of assay [3] is hrpA promoter (T3SS). Kind of assay: GFP reporter plasmid phrpA, flow cytometry (FACS) of hrpA promoter activity. The format is cell-based, Dickeya dadantii 3937. Conditions: for mean fluorescence intensity of GFP, hrpA expression: D. dadantii 3937 (phrpA), MM + 100 μM compound; for minimal effective concentration: Dickeya dadantii, read-out: minimal inhibitory concentration on hrpA expression (concentration showing inhibitory effect); for inhibitory activity on T3SS gene (hrpA) expression, in words: D. dadantii 3937, reporter plasmid phrpA, 100 μM. On the procedure:
(§3) FACS analysis of promoter activity of dspE, hrpA, hrpL, hrpN, and hrpS was carried out as described (Peng et al., 2006). Briefly, the wild-type Ech3937 and the mutant strains carrying the promoter reporter plasmid were grown on LB broth at 28° C. overnight and transferred to appropriate media. For FACS analysis, samples were collected by centrifugation, washed with 1× phosphate buffer saline (PBS) at 13,000 rpm for 1 min, and re-suspended in 1×PBS to ca 10^6 CFU/ml prior to being run in a FACS Calibur flow cytometer (BD Biosciences, CA). Three replicates were performed for each treatment.
To identify potential compounds that repress activation of T3SS, analogs and isomers of TCA and intermediates of salicylic acid and phenypropanoid biosynthesis pathways in plants were further screened for their effect on Ech3937 hrpA expression by flow cytometry (Table 9). A green fluorescent protein (GFP) reporter plasmid phrpA (pProbe-AT derivative with PCR fragment containing hrpA promoter region) was constructed, resulting in a transcriptional fusion of hrpA promoter with GFP gene. Bacterial cells containing phrpA plasmid were grown in MM supplemented with 0.1 mM of each compound. GFP intensity, which is a measurement of hrpA promoter activity, was measured by flow cytometry.
hrpA encodes the T3SS pilus required for protein translocation into plant cells. To test for an inhibitory effect on T3SS hrpA expression, the reporter plasmid phrpA was used to measure the effects of these compounds on hrpA expression. The reporter plasmid phrpA encodes a transcriptional fusion of the hrpA promoter controlling expression of green fluorescent protein (gfp). 50 μL of bacterial suspension of D. dadantii 3937 carrying the hrpA reporter (optical density at 600 nm OD600=1.0) was used as the initial inoculum and added to 5 mL of MM or MM supplemented with 100 μM of one of the compounds. The expression level of hrpA of these bacterial cells was measured by measuring GFP intensity of gated populations of the bacterial cells by flow cytometry and analyzed with Cell Quest software (BD Biosciences, San Jose, Calif.). The fluorescence intensities were an average GFP fluorescence intensity of total bacterial cells. Compounds were assayed two different times (12 and 24 h of bacterial growth) with T3SS minimal media (MM) as the control treatment for each set of experiment. Values presented in Table 14 are mean fluorescence intensity of GFP, representative of two experiments, presented as the average of three replicates with standard deviation (SD).

In assay [4] the test system is hrpS promoter. In words: GFP reporter plasmid phrpS, flow cytometry of hrpS promoter activity. Type of assay: cell-based, Dickeya dadantii 3937. Conditions: reporter plasmid phrpS. On the procedure: as §3
To test for an inhibitory effect on T3SS hrpS expression, the reporter plasmid phrpS was used to measure the effects of these compounds on hrpA expression.

Assay [5] relates to P. aeruginosa. Kind of assay: P. aeruginosa bacterial growth with compound. Type of assay: cell-based, P. aeruginosa PA01. Conditions: for effect on bacterial growth, in words: P. aeruginosa, 250 μM; for dose-dependent effect on P. aeruginosa growth, in words: various concentrations (up to 250 μM for 101, up to 500 μM for 027), FIG. 39. On the procedure: as §1, §2
Setting [6] is: Trial 1, MM supplemented with compound at 100 μM.
[7] abbreviates: Trial 2, MM supplemented with compound at 100 μM.

Results on 9 molecules are retold here after patent US9260382B2, “Methods of reducing virulence in bacteria” (priority 2010, dated 2016).

“Also recorded” adds a separate entry of the source.

With `COC(=O)/C=C/c1ccc(O)cc1` [Compound 101, Methyl para-coumate], the “Avg MFI ± SD, hrpA expression” value is 1443.4 ± 49.4 in assay [1] (6 h) and 1227.8 ± 41.6 in assay [1] (9 h). Besides, the “Actual readings of flow cytometry (exoS expression)” value (“Actual readings of flow cytometry” for short) came out at 122.82 ± 2.89 in assay [2] (20 uM), 106.83 ± 3.09 in assay [2] (50 uM), 100.10 ± 1.33 in assay [2] (100 uM) and 81.88 ± 2.41 in assay [2] (250 uM). In assay [2], the “Fraction of untreated control (exoS expression)” value stood at 0.65 ± 0.03. Further, the “mean fluorescence intensity of GFP, hrpA expression” value in assay [3] (12 h) amounted to 17.5 ± 0.7; in assay [3] (24 h), 19.9 ± 0.5. The minimal effective concentration in assay [3] is 100 µM.

`O=C(O)/C=C/c1ccc(Br)cc1` [Compound 111, trans-4-Bromocinnamic acid]: the “Avg MFI ± SD, hrpA expression” value was determined as 102.8 ± 23.5 in assay [1] (6 h) and 61.8 ± 4.2 in assay [1] (9 h). The “inhibitory effect on T3SS hrpS expression, in words” value (from here on “inhibitory effect”) in assay [4] is on record as “inhibited hrpS”. The “mean fluorescence intensity of GFP, hrpA expression” value came out at 23.9 ± 5.2 in assay [3] (12 h) and 54.7 ± 7.2 in assay [3] (24 h). Further, the “inhibitory activity on T3SS gene (hrpA) expression, in words” value (shortened to “inhibitory activity on T3SS gene”) in assay [3] is listed as “showed inhibitory effect; also recorded: moderate potency”. The “Mean Fluorescence Intensity of GFP (hrpA, phrpA)” value in assay [3] (setting [6]) worked out at 16.5 ± 0.8.

Regarding `Nc1ccc(/C=C/C(=O)O)cc1` [Compound 027, trans-4-Aminocinnamic acid], the results for the “Avg MFI ± SD, hrpA expression” value in assay [1] (6 h) and in assay [1] (9 h) were 255.6 ± 7.4 and 132.1 ± 8.5, respectively. In assay [5], the “effect on bacterial growth, in words” value was “minor alterations in bacterial growth”. For the same molecule, the “dose-dependent effect on P. aeruginosa growth, in words” value in assay [5] is on record as “only minor effects on bacterial growth”. For the same molecule, the “Actual readings of flow cytometry” value turned out to be 102.07 ± 0.54 in assay [2] (20 uM), 97.23 ± 0.72 in assay [2] (50 uM), 78.66 ± 2.69 in assay [2] (100 uM) and 72.16 ± 1.13 in assay [2] (250 uM). In addition, the “Fraction of untreated control (exoS expression)” value in assay [2] came out at 0.66 ± 0.04.

Consider `O=C(/C=C/c1c[nH]c2ccccc12)NO` [Compound 127, trans-3-Indoleacrylohydroxamic acid], for which the results for the “Avg MFI ± SD, hrpA expression” value in assay [1] (6 h) and in assay [1] (9 h) were 91.4 ± 4.9 and 102.7 ± 0.5, respectively. Also, in assay [4], the “inhibitory effect” value is listed as “inhibited hrpS”. For the same molecule, the “mean fluorescence intensity of GFP, hrpA expression” value in assay [3] (12 h) came out at 21.0 ± 3.0; in assay [3] (24 h), 35.1 ± 3.0. Moreover, the “inhibitory activity on T3SS gene” value in assay [3] is “showed inhibitory effect; also recorded: moderate potency”. The minimal effective concentration in assay [3] is 100 µM. Further, the “Mean Fluorescence Intensity of GFP (hrpA, phrpA)” value in assay [3] (setting [7]) is 26.2 ± 2.6.

Turning to `OC/C=C/c1ccccc1` [Compound 032, Cinnamyl alcohol], the “Avg MFI ± SD, hrpA expression” value in assay [1] (6 h) stood at 681.6 ± 217.9; in assay [1] (9 h), 784.0 ± 53.3. Moreover, the “effect on bacterial growth, in words” value in assay [5] was “minor alterations in bacterial growth”.

Take `O=C(NO)c1ccccc1` [Compound 134, Benzhydroxamic acid]: the results for the “Avg MFI ± SD, hrpA expression” value in assay [1] (6 h) and in assay [1] (9 h) were 679.0 ± 12.7 and 921.6 ± 10.3, respectively. Besides, the “effect on bacterial growth, in words” value in assay [5] was “some inhibition on bacterial growth”. In addition, the “dose-dependent effect on P. aeruginosa growth, in words” value in assay [5] was “inverse relationship was observed between the compound concentration and bacterial growth”. The “Actual readings of flow cytometry” value in assay [2] (20 uM) was 157.22 ± 7.94; in assay [2] (50 uM), 199.21 ± 3.06; in assay [2] (100 uM), 289.53 ± 3.74; in assay [2] (250 uM) it was 411.72 ± 2.70.

For `O=C(/C=C/c1cccc(Cl)c1)NO` [Compound 149, trans-3-Chlorocinnamohydroxamic acid], the “Avg MFI ± SD, hrpA expression” value in assay [1] (6 h) turned out to be 31.2 ± 34.1; in assay [1] (9 h), 21.7 ± 28.5. Further, in assay [5], the “effect on bacterial growth, in words” value was “minor alterations in bacterial growth”.

On to `COc1ccc(/C=C/CO)cc1` [Compound 126, trans-4-Methoxycinnamyl alcohol], for which the entries for the “Avg MFI ± SD, hrpA expression” value in assay [1] (6 h) and in assay [1] (9 h) were 386.9 ± 9.4 and 401.4 ± 10.8, respectively. In addition, the “inhibitory effect” value in assay [4] is reported as “inhibited hrpS”. Also, the “mean fluorescence intensity of GFP, hrpA expression” value worked out at 7.8 ± 0.2 in assay [3] (12 h) and 13.4 ± 0.3 in assay [3] (24 h). Moreover, the “inhibitory activity on T3SS gene” value in assay [3] was “showed inhibitory effect; also recorded: potent inhibitor”. The minimal effective concentration in assay [3] was 100 µM. For the same molecule, the “Mean Fluorescence Intensity of GFP (hrpA, phrpA)” value in assay [3] (setting [7]) stood at 9.5 ± 0.7.

For `CCOC(=O)[C@@H]1C[C@H]1c1ccc(O)cc1` (relative stereo) [Compound 106, Ethyl trans-2-(4-hydroxyphenyl)-1-cyclopropanecarboxylate], the “Avg MFI ± SD, hrpA expression” value in assay [1] (6 h) is listed as 1289.3 ± 46.5; in assay [1] (9 h), 1110.9 ± 67.5. In assay [4], the “inhibitory effect” value was “inhibited hrpS”. Moreover, the results for the “mean fluorescence intensity of GFP, hrpA expression” value in assay [3] (12 h) and in assay [3] (24 h) were 10.5 ± 0.8 and 49.4 ± 4.1, respectively. Also, in assay [3], the “inhibitory activity on T3SS gene” value is given as “showed inhibitory effect; also recorded: strong inhibitory potency”. In addition, the minimal effective concentration in assay [3] was determined as 100 µM. For the same molecule, the “Mean Fluorescence Intensity of GFP (hrpA, phrpA)” value in assay [3] (setting [6]) stood at 9.4 ± 0.1.
